Measurements published in patent US20230301981A1, “TLR7/8 ANTAGONISTS AND USES THEREOF” (Merck Patent GmbH, priority 2020, published 2023).

Columns and labels:
TLR8 = target: T1, TLR8 (Homo sapiens, UniProt Q9NR97); assay: Human whole blood assay, TLR8-specific agonist stimulation, IL-6 by AlphaLISA; format: cell-based; details: TLR8-specific agonist 0.5 µM, IL-6 readout, read-out: IC50 TLR8 (IL6 READOUT) HUMAN WHOLE BLOOD (N=2)
T1 construct: Human whole blood from healthy donors was drawn into EDTA Vacutainer tubes; endogenous in cells; host or cells: human whole blood (healthy donors)
T1 sequence (Q9NR97 27-1041): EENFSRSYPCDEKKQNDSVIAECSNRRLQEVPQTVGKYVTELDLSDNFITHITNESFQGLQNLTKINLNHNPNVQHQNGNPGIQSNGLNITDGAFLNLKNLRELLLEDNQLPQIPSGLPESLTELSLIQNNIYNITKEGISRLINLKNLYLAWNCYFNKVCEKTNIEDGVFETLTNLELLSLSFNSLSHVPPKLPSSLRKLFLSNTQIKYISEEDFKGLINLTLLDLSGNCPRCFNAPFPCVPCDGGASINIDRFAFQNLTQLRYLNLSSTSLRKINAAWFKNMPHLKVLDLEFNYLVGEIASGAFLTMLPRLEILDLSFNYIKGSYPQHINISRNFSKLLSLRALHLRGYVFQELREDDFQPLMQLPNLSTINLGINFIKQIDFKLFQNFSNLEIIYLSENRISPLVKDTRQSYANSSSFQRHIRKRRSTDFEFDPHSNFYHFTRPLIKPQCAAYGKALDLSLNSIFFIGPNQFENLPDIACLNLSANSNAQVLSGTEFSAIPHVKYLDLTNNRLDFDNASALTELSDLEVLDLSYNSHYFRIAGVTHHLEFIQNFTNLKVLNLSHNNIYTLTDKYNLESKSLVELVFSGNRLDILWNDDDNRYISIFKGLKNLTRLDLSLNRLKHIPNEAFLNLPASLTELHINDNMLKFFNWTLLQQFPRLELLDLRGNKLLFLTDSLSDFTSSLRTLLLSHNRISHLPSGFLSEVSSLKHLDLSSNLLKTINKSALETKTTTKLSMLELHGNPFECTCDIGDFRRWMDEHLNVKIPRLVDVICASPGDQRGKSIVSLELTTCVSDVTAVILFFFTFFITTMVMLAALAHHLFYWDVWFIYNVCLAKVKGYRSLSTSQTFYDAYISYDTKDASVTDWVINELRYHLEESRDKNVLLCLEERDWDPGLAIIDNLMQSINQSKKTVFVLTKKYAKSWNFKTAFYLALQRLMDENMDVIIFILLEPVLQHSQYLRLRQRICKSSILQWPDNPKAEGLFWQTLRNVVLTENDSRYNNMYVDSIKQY
Protocol: (§1) Human whole blood from healthy donors was drawn into EDTA Vacutainer tubes and the experiment started within 2 hr of draw. Four parts blood was diluted with 1 part PBS. 10 mM compounds stock solutions were serially diluted 1:3 eleven times in DMSO. Each serial dilution was further diluted by transferring 3 µl to 100 µl RPMI. For the stimulation only and no stimulation controls, 3 µl 100% DMSO was transferred to 100 µl RPMI. Then, 5 µl of each of these dilutions were transferred to 96-well tissue culture grade U-bottom plate in triplicate for each ligand and each donor. Final inhibitor concentrations were 10, 3.3, 1.1, 0.37, 0.12, 0.04, 0.014, 0.0046, 0.0015, 0.00051, 0.00017, 0.00006 µM. No inhibitor (stimulation only) controls were included in triplicate for each donor. Diluted blood was dispensed on top of inhibitor dilutions at 150 µl/well. Plates were incubated at 37° C. 5% CO2 for 30 min. For TLR7 stimulation, 10 mM stock of a TLR7-specific small molecule agonist in DMSO was diluted to 90 µM in RPMI and 5 µl were added to each inhibitor dilution for each donor. Final concentration was 3 µM. For TLR8 stimulation, 10 mM stock of a TLR8-specific small molecule agonist in DMSO was diluted to 15 µM in RPMI and 5 µl were added to each inhibitor dilution for each donor. Final concentration was 0.5 µM. No stimulation controls were included in triplicate for each donor. Plates were incubated at 37° C. 5% CO2 overnight. Next day, plasma was collected and IL-6 was measured by AlphaLISA (PerkinElmer AL223 according to manufacturer’s protocol.

TLR7 = target: T2, TLR7 (Homo sapiens, UniProt Q9NYK1); assay: Human whole blood assay, TLR7-specific agonist stimulation, IL-6 by AlphaLISA; format: cell-based; set-up: Human whole blood from healthy donors was drawn into EDTA Vacutainer tubes; endogenous in cells; host or cells: human whole blood (healthy donors); details: TLR7-specific agonist 3 µM, IL-6 readout, read-out: IC50 TLR7 (IL6 READOUT) HUMAN WHOLE BLOOD (N=2)
T2 sequence (Q9NYK1 27-1049): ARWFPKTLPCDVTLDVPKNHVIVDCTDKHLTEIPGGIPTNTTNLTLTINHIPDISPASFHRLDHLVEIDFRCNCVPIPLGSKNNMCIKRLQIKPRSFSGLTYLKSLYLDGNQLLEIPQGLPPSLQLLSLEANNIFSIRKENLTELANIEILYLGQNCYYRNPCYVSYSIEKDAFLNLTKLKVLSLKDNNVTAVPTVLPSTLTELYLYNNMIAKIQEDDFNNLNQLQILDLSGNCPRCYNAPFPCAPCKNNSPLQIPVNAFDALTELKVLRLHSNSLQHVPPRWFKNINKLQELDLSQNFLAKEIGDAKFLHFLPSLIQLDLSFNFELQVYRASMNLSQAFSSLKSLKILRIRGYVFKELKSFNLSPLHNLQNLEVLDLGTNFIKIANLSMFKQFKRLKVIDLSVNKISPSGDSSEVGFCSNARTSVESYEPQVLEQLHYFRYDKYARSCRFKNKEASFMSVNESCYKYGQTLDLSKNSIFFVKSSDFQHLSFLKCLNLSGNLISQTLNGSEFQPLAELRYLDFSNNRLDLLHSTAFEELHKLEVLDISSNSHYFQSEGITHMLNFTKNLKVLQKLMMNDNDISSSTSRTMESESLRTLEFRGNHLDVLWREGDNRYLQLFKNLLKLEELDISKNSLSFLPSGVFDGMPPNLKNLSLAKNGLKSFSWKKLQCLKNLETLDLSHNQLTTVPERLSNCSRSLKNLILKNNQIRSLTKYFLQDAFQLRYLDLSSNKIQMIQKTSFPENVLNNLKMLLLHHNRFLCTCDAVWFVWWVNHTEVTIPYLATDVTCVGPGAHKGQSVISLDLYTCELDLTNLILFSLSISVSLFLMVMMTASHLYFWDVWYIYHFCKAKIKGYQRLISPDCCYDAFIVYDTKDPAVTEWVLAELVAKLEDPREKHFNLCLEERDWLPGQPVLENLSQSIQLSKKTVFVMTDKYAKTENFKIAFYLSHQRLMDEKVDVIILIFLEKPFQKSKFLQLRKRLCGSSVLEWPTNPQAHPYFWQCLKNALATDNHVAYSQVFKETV
Protocol: as §1

| Structure (SMILES) | IC50 (TLR8) | IC50 (TLR7) |
| --- | --- | --- |
| COc1ccc2nc3cc(Cl)ccc3c(Nc3cc(CN4CCCC4)c(O)c(CN4CCCC4)c3)c2n1 [Compound 1, Pyronaridine] | 610 nM | 210 nM |
| CCN(CCO)CCCC(C)Nc1ccnc2cc(Cl)ccc12 (stereo not shown) [HYDROXY-CHLOROQUINE HCQ, hydroxychloroquine] | 1240 nM | 960 nM |
